Data reported in ChEMBL document CHEMBL5500414 (J Med Chem, 2024).

Assays:
BCL2A1/BID [1] = molecular target: T1, BCL2A1/BID (Homo sapiens, UniProt Q16548)
T1 sequence (Q16548 whole entry): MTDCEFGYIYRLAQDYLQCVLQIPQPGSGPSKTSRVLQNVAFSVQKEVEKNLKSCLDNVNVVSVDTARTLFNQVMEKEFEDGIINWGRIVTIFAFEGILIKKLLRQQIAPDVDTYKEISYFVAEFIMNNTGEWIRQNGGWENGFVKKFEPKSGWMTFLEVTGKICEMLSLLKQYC
T1 sequence (P55957 whole entry): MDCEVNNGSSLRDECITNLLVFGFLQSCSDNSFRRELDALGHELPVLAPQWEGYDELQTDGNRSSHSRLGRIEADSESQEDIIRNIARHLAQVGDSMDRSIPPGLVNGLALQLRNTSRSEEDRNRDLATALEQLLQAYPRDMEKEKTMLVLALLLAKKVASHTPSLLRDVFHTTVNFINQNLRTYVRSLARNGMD

[2] = molecular target: Induced myeloid leukemia cell differentiation protein Mcl-1/BH3-interacting domain death agonist (Homo sapiens, UniProt Q07820)
Description: Inhibition of MCL-1 (unknown origin)/FAM-BID (unknown origin) interaction measured by fluorescence polarization assay

Pfeiffer = test: Antiproliferative activity against human Pfeiffer cells expressing high BCL-2/BFL-1 assessed as cell viability measured after 72 hrs by Cell Counting Kit-8 assay
MV4-11 = test: Antiproliferative activity against human MV4-11 cells expressing high BCL-2 assessed as cell viability measured after 72 hrs by Cell Counting Kit-8 assay; conditions: MV4-11, 72 h
BCL2A1/BID [3] = molecular target: T1, BCL2A1/BID; remark: listed apart in the source
Description: Inhibition of BFL-1 (unknown origin)/FITC-conjugated Bid BH3 peptide (unknown origin) interaction by fluorescence polarization assay

[4] = Glutathione reactivity assessed as half life

Sequence of Induced myeloid leukemia cell differentiation protein Mcl-1/BH3-interacting domain death agonist (Q07820 whole entry, one chain of several, the tested form may be a part): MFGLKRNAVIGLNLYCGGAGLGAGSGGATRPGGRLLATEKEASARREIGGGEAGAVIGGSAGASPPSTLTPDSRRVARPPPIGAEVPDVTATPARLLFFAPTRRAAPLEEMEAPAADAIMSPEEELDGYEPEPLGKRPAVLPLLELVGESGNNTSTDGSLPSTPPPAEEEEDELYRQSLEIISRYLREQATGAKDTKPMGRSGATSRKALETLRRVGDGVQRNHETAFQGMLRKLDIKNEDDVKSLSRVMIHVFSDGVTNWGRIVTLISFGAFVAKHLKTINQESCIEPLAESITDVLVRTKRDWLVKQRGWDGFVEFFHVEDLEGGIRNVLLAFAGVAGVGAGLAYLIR

SMILES	Ki (BCL2A1/BID [1])	other results
C=CC(=O)Nc1ccc2c(c1)CCC(CN1CCN(c3ccc(C(=O)O)cc3)CC1)=C2c1cccc(Cl)c1	> 20000 nM	
C=CC(=O)Nc1ccc2c(c1)CCC(CN1CCN(c3ccc(C(=O)O)cc3)CC1)=C2c1ccc(NC(C)=O)cc1	> 20000 nM	
C=CC(=O)Nc1ccc2c(c1)CCC(CN1CCN(c3ccc(C(=O)O)cc3)CC1)=C2c1ccc(C#N)cc1	> 20000 nM	
C=CC(=O)N(C)Cc1ccc2c(c1)CCC(CN1CCN(c3ccc(C(=O)O)cc3)CC1)=C2c1ccc(Cl)cc1	326 nM	
C=CC(=O)Nc1ccc2c(c1)CCC(CN1CCN(c3ccc(C(=O)O)cc3)CC1)=C2c1ccccc1	781 nM	
C=CC(=O)N(CCC)c1ccc2c(c1)CCC(CN1CCN(c3ccc(C(=O)O)cc3)CC1)=C2c1ccc(Cl)cc1CC	124 nM	Ki [2]: 4.4 µM
C=CC(=O)Nc1ccc2c(c1)CCC(CN1CCN(c3ccc(C(=O)O)cc3)CC1)=C2c1ccc(Cl)cc1F	361 nM	
C=CC(=O)Nc1ccc2c(c1)CCC(CN1CCN(c3ccc(C(=O)O)c(-c4ccccc4)c3)CC1)=C2c1ccc(Cl)cc1	178 nM	
C=CC(=O)Nc1ccc2c(c1)CCC(CN1CCN(c3ccc(C(=O)O)cc3-c3ccccc3)CC1)=C2c1ccc(Cl)cc1	> 20000 nM	
C=CC(=O)N(c1ccc2c(c1)CCC(CN1CCN(c3ccc(C(=O)O)cc3)CC1)=C2c1ccc(Cl)cc1CC)C(C)C	140 nM	
C=CC(=O)Nc1ccc2c(c1)CCC(CN1CCN(c3ccc(C(=O)O)cc3)CC1)=C2c1ccc(OC)cc1	> 20000 nM	
C=CC(=O)Nc1ccc2c(c1)CCC(CN1CCN(c3ccc(C(=O)O)cc3)CC1)=C2c1cccc2cc[nH]c12	> 20000 nM	
C=CC(=O)NCc1ccc2c(c1)CCC(CN1CCN(c3ccc(C(=O)O)cc3)CC1)=C2c1ccc(Cl)cc1	913 nM	
C=CC(=O)Nc1ccc2c(c1)CCC(CN1CCN(c3ccc(C(=O)O)c(N(C)CCCO)c3)CC1)=C2c1ccc(Cl)cc1	> 20000 nM	
CCc1cc(Cl)ccc1C1=C(CN2CCN(c3ccc(C(=O)NS(=O)(=O)c4ccc(NCC5CCOCC5)c([N+](=O)[O-])c4)c(Oc4cnc5[nH]ccc5c4)c3)CC2)CCc2cc(N)ccc21	1130 nM	Ki [2]: 3.3 µM; IC50 (Pfeiffer): 8.05 µM; IC50 (MV4-11): 3.69 µM
C=CC(=O)N(CC)Cc1ccc2c(c1)CCC(CN1CCN(c3ccc(C(=O)O)cc3)CC1)=C2c1ccc(Cl)cc1	335 nM	
C=CC(=O)N(CC)c1ccc2c(c1)CCC(CN1CCN(c3ccc(C(=O)O)cc3)CC1)=C2c1ccc(Cl)cc1CC	110 nM	IC50 (Pfeiffer): 22.9 µM; IC50 (MV4-11): 33.5 µM
C=CC(=O)Nc1ccc2c(c1)CCC(CN1CCN(c3ccc(C(=O)O)cc3)CC1)=C2c1ccccc1OC	> 20000 nM	
CCOC(=O)CS(=O)(=O)c1nc(-c2ccc(F)cc2)cc(C(F)(F)F)n1		IC50 (BCL2A1/BID [3]): 2600 nM
C=CC(=O)Nc1ccc2c(c1)CCC(CN1CCN(c3ccc(C(=O)O)c(-c4ccncc4)c3)CC1)=C2c1ccc(Cl)cc1	370 nM	

SMILES	Ki (BCL2A1/BID [1])	other results
C=CC(=O)Nc1ccc2c(c1)CCC(CN1CCN(c3ccc(C(=O)NS(=O)(=O)c4ccc(NCC5CCOCC5)c([N+](=O)[O-])c4)c(Oc4cnc5[nH]ccc5c4)c3)CC1)=C2c1ccc(Cl)cc1	> 20000 nM	Ki [2]: 4.16 µM; IC50 (Pfeiffer): 7.5 µM; IC50 (MV4-11): 1.79 µM
C=CC(=O)N1CCN(c2c3ccc(-c4cccc(F)c4)cc3nn2Cc2ccccc2)CC1	465 nM	
C=CC(=O)Nc1ccc2c(c1)CCC(CN1CCN(c3ccc(C(=O)O)cc3)CC1)=C2Br	> 20000 nM	
C=CC(=O)Nc1ccc2c(c1)CCC(CN1CCN(c3ccc(C(=O)O)cc3)CC1)=C2c1ccc(O)cc1	> 20000 nM	
C=CC(=O)Nc1ccc2c(c1)CCC(CN1CCN(c3ccc(C(=O)O)cc3)CC1)=C2c1ccn[nH]1	> 20000 nM	
C=CC(=O)Nc1ccc2c(c1)CCC(CN1CCN(c3ccc(C(=O)O)cc3)CC1)=C2c1cccc(OC)c1	723 nM	
C=CC(=O)Nc1ccc2c(c1)CCC(CN1CCN(c3cccc(C(=O)O)c3)CC1)=C2c1ccc(Cl)cc1	> 20000 nM	
C=CC(=O)Nc1ccc2c(c1)CCC(CN1CCN(c3ccccc3C(=O)O)CC1)=C2c1ccc(Cl)cc1	> 20000 nM	
C=CC(=O)Nc1ccc2c(c1)CCC(CN1CCN(Cc3ccc(C(=O)O)cc3)CC1)=C2c1ccc(Cl)cc1	> 20000 nM	
C=CC(=O)Nc1ccc2c(c1)CCC(CN1CCN(c3ccc(C(=O)O)cc3)CC1)=C2c1ccncc1	5340 nM	
C=CC(=O)Nc1ccc2c(c1)CCC(CN1CCN(c3ccc(C(=O)O)c(N(C)CCCN(C)C)c3)CC1)=C2c1ccc(Cl)cc1	774 nM	
Nc1ccc2c(c1)CCC(CN1CCN(c3ccc(C(=O)NS(=O)(=O)c4ccc(NCC5CCOCC5)c([N+](=O)[O-])c4)c(Oc4cnc5[nH]ccc5c4)c3)CC1)=C2c1ccc(Cl)cc1	1170 nM	Ki [2]: 4.76 µM; IC50 (Pfeiffer): 8.9 µM; IC50 (MV4-11): 4.42 µM
C=CC(=O)N(C)c1ccc2c(c1)CCC(CN1CCN(c3ccc(C(=O)O)cc3)CC1)=C2c1ccc(Cl)cc1	373 nM	
C=CC(=O)Nc1cc(Nc2nccc(-c3cn(C)c4ccccc34)n2)c(OC)cc1N(C)CCN(C)C [OSIMERTINIB]		half-life [4]: 30.6 min
C=CC(=O)Nc1ccc2c(c1)CCC(CN1CCN(c3ccc(C(=O)OCC)cc3)CC1)=C2c1ccc(Cl)cc1	> 20000 nM	
CN1CCN(C2=C(Cl)C(=O)N(c3ccc(Cl)c(Cl)c3)C2=O)CC1		IC50 (BCL2A1/BID [3]): 400 nM
C=CC(=O)Nc1ccc2c(c1)CCC(CN1CCN(c3ccc(C(=O)O)cc3)CC1)=C2c1cn[nH]c1	> 20000 nM	
C=CC(=O)Nc1ccc2c(c1)CCC(CN1CCNCC1)=C2c1ccc(Cl)cc1	> 20000 nM	
O=C(CCl)Nc1ccc2c(c1)CCC(CN1CCN(c3ccc(C(=O)O)cc3)CC1)=C2c1ccc(Cl)cc1	997 nM	
C=CC(=O)Nc1ccc2c(c1)CCC(CN1CCN(c3ccc(C(=O)O)cc3)CC1)=C2c1ccc(Cl)cc1C	251 nM	

SMILES	Ki (BCL2A1/BID [1])	other results
CC(C)(C)c1ccc(CN2CCN(S(=O)(=O)Nc3ccc(SCCc4ccccc4)cc3C(=O)O)CC2)cc1	645 nM	IC50 (Pfeiffer): 21.3 µM; IC50 (MV4-11): 46.2 µM
C=CC(=O)Nc1ccc2c(c1)CCC(CN1CCN(c3ccc(C(=O)NS(=O)(=O)c4ccccc4)cc3)CC1)=C2c1ccc(Cl)cc1	> 20000 nM	
C=CC(=O)N(C)c1ccc2c(c1)CCC(CN1CCN(c3ccc(C(=O)O)cc3)CC1)=C2c1ccc(Cl)cc1CC	218 nM	
C=CC(=O)Nc1ccc2c(c1)CCC(CN1CCN(c3ccc(C(=O)NS(=O)(=O)c4ccc(NCC5CCOCC5)c([N+](=O)[O-])c4)c(Oc4cnc5[nH]ccc5c4)c3)CC1)=C2c1ccc(Cl)cc1CC	949 nM	Ki [2]: 4.51 µM; IC50 (Pfeiffer): 7.28 µM; IC50 (MV4-11): 2.35 µM
C=CC(=O)Nc1ccc2c(c1)CCC(CN1CCN(c3ccc(C(=O)O)c(Oc4cnc5c(ccn5C)c4)c3)CC1)=C2c1ccc(Cl)cc1	145 nM	
C=CC(=O)Nc1ccc2c(c1)CCC(CN1CCN(c3ccc(C(=O)O)cc3)CC1)=C2c1ccc(Cl)cc1	525 nM	
C=CC(=O)Nc1ccc2c(c1)CCC(CN1CCN(Cc3cccc(C(=O)O)c3)CC1)=C2c1ccc(Cl)cc1	> 20000 nM	
C=CC(=O)Nc1ccc2c(c1)CCC(CN1CCN(c3ccc(C(=O)O)cc3)CC1)=C2c1ccccc1Cl	409 nM	
C=CC(=O)Nc1ccc2c(c1)CCC(CN1CCN(c3ccc(C(=O)O)cc3)CC1)=C2c1ccc(Cl)cc1CC	158 nM	
C=CC(=O)Nc1ccc2c(c1)CCC(CN1CCN(c3ccc(C(=O)O)cc3-c3ccncc3)CC1)=C2c1ccc(Cl)cc1	> 20000 nM	
C=CC(=O)Nc1ccc2c(c1)CCC(CN1CCN(c3ccc(C(=O)O)cc3)CC1)=C2c1ccc(C(=O)O)cc1	> 20000 nM	
C=CC(=O)Nc1ccc2c(c1)CCC(CN1CCN(c3ccc(C(=O)O)cc3)CC1)=C2C1CC1	> 20000 nM	
C=CC(=O)Nc1ccc2c(c1)CCC(CN1CCN(c3ccc(C(=O)O)cc3)CC1)=C2c1cnn(C)c1	> 20000 nM	
CC(=O)N[C@@H](Cc1c[nH]c2ccccc12)C(=O)NCCSSCCN(C)C		EC50 (BCL2A1/BID [3]): 1300 nM
C=CC(=O)Nc1ccc2c(c1)CCC(CN1CCN(c3ccc(C(=O)O)cc3)CC1)=C2c1cccc(O)c1	> 20000 nM	
C=CC(=O)Nc1ccc2c(c1)CCC(CN1CCN(c3ccc(C(=O)O)cc3)CC1)=C2c1ccc(Cl)cc1Cl	256 nM	
C=CC(=O)Nc1ccc2c(c1)CCC(CN1CCN(c3ccc(C(=O)O)c(Oc4cnc5[nH]ccc5c4)c3)CC1)=C2c1ccc(Cl)cc1	127 nM	Ki [2]: 2.36 µM; IC50 (Pfeiffer): 10.6 µM; IC50 (MV4-11): 19.9 µM
C=CC(=O)Nc1ccc2c(c1)CCC(CN1CCN(c3ccc(C(=O)O)cc3)CC1)=C2c1ccc(Cl)cc1OC	959 nM	
